Data taken from patent US7919508B2, “3-piperidinylisochroman-5-ols as dopamine agonists” (Aventis Pharmaceuticals Inc., priority 2004, dated 2011).
Where a name gives a salt, the structure may show the parent alone. Read-outs that look alike come from different tables or passages of the source.

Columns and labels:
[1] = biological target: T1, human dopamine D1 receptor (Homo sapiens, UniProt P21728); test: [3H]-SCH-23390 binding to cloned human dopamine D1 receptors (CHO cell membranes)
T1 construct: A 1.4 Kb Hind III to Xho I fragment was subcloned into the vector pMMLV; expressed in transfected cells; host or cells: CHO cells, clone CHO-D1M#9 (plasmid pHD1MMLV), membranes

[2] = biological target: T2, D1 receptor (Homo sapiens, UniProt P21728); test: D1 Activation Adenylyl Cyclase Assay (cAMP FlashPlate, D1 transfected CHO cell line); type: cell-based
T2 construct: expressed in transfected cells; host or cells: D1 transfected CHO cell line
Procedure, shortened: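 D1-transfected CHO cells (50,000/well) were exposed to compound 1/10 serial dilutions for 8 min at RT; cAMP measured by competitive 125I-cAMP FlashPlate against a standard curve. Response normalised between basal and saturating D1 agonist; EC50 at half-maximal stimulation, plateau reported as % maximal dopamine stimulation.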

[3] = biological target: human dopamine D2Long (D2L) receptors (Homo sapiens, UniProt P14416)
[4] = competitive binding, [3H]-SCH-23390, cloned human D1 in CHO membranes, read-out: D1 affinity Ki
[5] = agonist activity at the D1 receptor, adenylate cyclase assay, D1 transfected CHO cell line, read-out: D1 EC50

human dopamine D2Long (D2L) receptors, sequence (P14416 whole entry): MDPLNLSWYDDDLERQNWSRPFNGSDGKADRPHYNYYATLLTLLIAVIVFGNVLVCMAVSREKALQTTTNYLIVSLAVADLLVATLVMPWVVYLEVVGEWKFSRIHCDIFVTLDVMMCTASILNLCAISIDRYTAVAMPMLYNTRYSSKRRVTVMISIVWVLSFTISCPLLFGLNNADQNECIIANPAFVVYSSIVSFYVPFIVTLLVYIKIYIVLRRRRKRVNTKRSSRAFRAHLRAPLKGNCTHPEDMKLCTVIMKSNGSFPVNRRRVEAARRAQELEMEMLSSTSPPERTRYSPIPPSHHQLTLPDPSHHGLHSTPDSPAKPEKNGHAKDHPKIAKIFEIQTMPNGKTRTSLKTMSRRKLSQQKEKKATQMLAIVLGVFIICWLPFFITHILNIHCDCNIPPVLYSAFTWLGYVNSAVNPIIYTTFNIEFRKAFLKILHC
T1 sequence (P21728 whole entry, the tested form may be a part): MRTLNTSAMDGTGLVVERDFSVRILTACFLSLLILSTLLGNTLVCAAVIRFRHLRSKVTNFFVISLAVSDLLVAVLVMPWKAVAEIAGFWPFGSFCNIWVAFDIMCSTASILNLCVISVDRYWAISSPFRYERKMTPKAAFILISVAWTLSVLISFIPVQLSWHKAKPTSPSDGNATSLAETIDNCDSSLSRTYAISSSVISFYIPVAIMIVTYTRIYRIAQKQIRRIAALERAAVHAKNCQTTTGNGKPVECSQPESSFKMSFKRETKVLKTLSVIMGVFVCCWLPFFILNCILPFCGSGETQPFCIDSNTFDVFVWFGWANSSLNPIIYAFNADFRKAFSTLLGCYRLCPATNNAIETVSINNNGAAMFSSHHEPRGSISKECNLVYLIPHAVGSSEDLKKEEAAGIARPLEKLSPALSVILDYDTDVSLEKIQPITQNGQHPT
T2 sequence (P21728 whole entry): as the sequence (P21728 whole entry, the tested form may be a part) above

Structure (SMILES) | Ki [1, 4] | EC50 [2, 5] | Ki [3] | Ki [1] | EC50 [2]
COC(=O)N1CCC([C@@H]2Cc3c(ccc(C)c3O)[C@H](CN)O2)CC1 [Example 112, 4-((1R,3S)-1-Aminomethyl-5-hydroxy-6-methyl-isochroman-3-yl)-piperidine-1-carboxylic acid methyl ester hydrochloride] | 101 nM | 0.6 nM | ≥ 100000 nM |  | 
Cc1ccc2c(c1O)C[C@@H](C1CCN(C(=O)Oc3ccccc3)CC1)O[C@H]2CN [Example 113, 4-((1R,3S)-1-Aminomethyl-5-hydroxy-6-methyl-isochroman-3-yl)-piperidine-1-carboxylic acid phenyl ester hydrochloride] |  |  | ≥ 100000 nM | 30.5 nM | 4.2 nM
Cc1ccc(OC(=O)N2CCC([C@@H]3Cc4c(ccc(C)c4O)[C@H](CN)O3)CC2)cc1 [Example 114, 4-((1R,3S)-1-Aminomethyl-5-hydroxy-6-methyl-isochroman-3-yl)-piperidine-1-carboxylic acid p-tolyl ester hydrochloride] |  |  | 511 nM | 64.6 nM | 0.85 nM
Cc1ccc2c(c1O)C[C@@H](C1CCN(C(=O)Oc3ccc(Cl)cc3)CC1)O[C@H]2CN [Example 115, 4-((1R,3S)-1-Aminomethyl-5-hydroxy-6-methyl-isochroman-3-yl)-piperidine-1-carboxylic acid 4-chloro-phenyl ester hydrochloride] |  |  | 506 nM | 39 nM | 48 nM
Cc1ccc2c(c1O)C[C@@H](C1CCN(C(=O)Oc3ccccc3Cl)CC1)O[C@H]2CN [Example 116, 4-((1R,3S)-1-Aminomethyl-5-hydroxy-6-methyl-isochroman-3-yl)-piperidine-1-carboxylic acid 2-chloro-phenyl ester hydrochloride] |  |  | ≥ 100000 nM | 32.6 nM | 4.6 nM
Cc1ccc2c(c1O)C[C@@H](C1CCN(C(=O)Oc3ccc(Br)cc3)CC1)O[C@H]2CN [Example 117, 4-((1R,3S)-1-Aminomethyl-5-hydroxy-6-methyl-isochroman-3-yl)-piperidine-1-carboxylic acid 4-bromo-phenyl ester hydrochloride] |  |  | 404 nM | 59 nM | 4.3 nM
Cc1ccc2c(c1O)C[C@@H](C1CCN(C(=O)Oc3ccc(F)cc3)CC1)O[C@H]2CN [Example 118, 4-((1R,3S)-1-Aminomethyl-5-hydroxy-6-methyl-isochroman-3-yl)-piperidine-1-carboxylic acid 4-fluoro-phenyl ester hydrochloride] |  |  | ≥ 10000 nM | 40 nM | 8.5 nM
Cc1ccc2c(c1O)C[C@@H](C1CCN(C(=O)Oc3ccccc3C(F)(F)F)CC1)O[C@H]2CN [Example 119, 4-((1R,3S)-1-Aminomethyl-5-hydroxy-6-methyl-isochroman-3-yl)-piperidine-1-carboxylic acid 2-trifluoromethyl-phenyl ester hydrochloride] |  |  | 649 nM | 54 nM | 3.1 nM
COc1ccc(OC(=O)N2CCC([C@@H]3Cc4c(ccc(C)c4O)[C@H](CN)O3)CC2)cc1 [Example 120, 4-((1R,3S)-1-Aminomethyl-5-hydroxy-6-methyl-isochroman-3-yl)-piperidine-1-carboxylic acid 4-methoxy-phenyl ester hydrochloride] |  |  | 767 nM | 45 nM | 36 nM
Cc1ccc2c(c1O)C[C@@H](C1CCN(C(=O)Oc3ccccc3O)CC1)O[C@H]2CN [Example 121, 4-((1R,3S)-1-Aminomethyl-5-hydroxy-6-methyl-isochroman-3-yl)-piperidine-1-carboxylic acid 2-hydroxy-phenyl ester hydrochloride] |  |  | 613 nM | 31 nM | 2.5 nM
Cc1ccc2c(c1O)C[C@@H](C1CCN(C(=O)Oc3ccc4ccccc4c3)CC1)O[C@H]2CN [Example 123, 4-((1R,3S)-1-Aminomethyl-5-hydroxy-6-methyl-isochroman-3-yl)-piperidine-1-carboxylic acid naphthalen-2-yl ester hydrochloride] |  |  | 154 nM | 37 nM | 10 nM
Cc1ccc2c(c1O)C[C@@H](C1CCN(C(=O)Nc3cc(C(F)(F)F)ccc3F)CC1)O[C@H]2CN [Example 124, 4-((1R,3S)-1-Aminomethyl-5-hydroxy-6-methyl-isochroman-3-yl)-piperidine-1-carboxylic acid (2-fluoro-5-trifluoromethyl-phenyl)-amide hydrobromide] | 486 nM | 20 nM | ≥ 10000 nM |  | 
COc1cccc(NC(=O)N2CCC([C@@H]3Cc4c(ccc(C)c4O)[C@H](CN)O3)CC2)c1 [Example 125, 4-((1R,3S)-1-Aminomethyl-5-hydroxy-6-methyl-isochroman-3-yl)-piperidine-1-carboxylic acid (3-methoxy-phenyl)-amide] | 79 nM | 60 nM | ≥ 10000 nM |  | 
Cc1ccc2c(c1O)C[C@@H](C1CCN(C(=O)Nc3cccc(O)c3)CC1)O[C@H]2CN [Example 126, 4-((1R,3S)-1-Aminomethyl-5-hydroxy-6-methyl-isochroman-3-yl)-piperidine-1-carboxylic acid (3-hydroxy-phenyl)-amide] | 21 nM | 1.7 nM | 328 nM |  | 
Cc1ccc2c(c1O)C[C@@H](C1CCN(C(=O)Nc3ccc(F)cc3)CC1)O[C@H]2CN [Example 128, 4-((1R,3S)-1-Aminomethyl-5-hydroxy-6-methyl-isochroman-3-yl)-piperidine-1-carboxylic acid (4-fluoro-phenyl)-amide hydrochloride] | 106 nM | 6000 nM | ≥ 10000 nM |  | 
Cc1ccc2c(c1O)C[C@@H](C1CCN(C(=O)Nc3ccccc3F)CC1)O[C@H]2CN [Example 129, 4-((1R,3S)-1-Aminomethyl-5-hydroxy-6-methyl-isochroman-3-yl)-piperidine-1-carboxylic acid (2-fluoro-phenyl)-amide hydrochloride] | 113 nM | 2000 nM | ≥ 10000 nM |  | 
Cc1ccc2c(c1O)C[C@@H](C1CCN(C(=O)N(C)c3ccccc3)CC1)O[C@H]2CN [Example 131, 4-((1R,3S)-1-Aminomethyl-5-hydroxy-6-methyl-isochroman-3-yl)-piperidine-1-carboxylic acid methyl-phenyl-amide hydrochloride] | 51 nM | 6.4 nM | ≥ 10000 nM |  | 
Cc1ccc2c(c1O)C[C@@H](C1CCN(C(=O)N3CCCC3)CC1)O[C@H]2CN [Example 135, [4-((1R,3S)-1-Aminomethyl-5-hydroxy-6-methyl-isochroman-3-yl)-piperidin-1-yl]-pyrrolidin-1-yl-methanone hydrochloride] | 61.5 nM | 2.8 nM | ≥ 100000 nM |  | 
CCCCN(CCCC)C(=O)N1CCC([C@@H]2Cc3c(ccc(C)c3O)[C@H](CN)O2)CC1 [Example 139, 4-((1R,3S)-1-Aminomethyl-5-hydroxy-6-methyl-isochroman-3-yl)-piperidine-1-carboxylic acid dibutylamide hydrochloride] | 137 nM | 0.11 nM | 204 nM |  | 
Cc1ccc2c(c1O)C[C@@H](C1CCN(S(=O)(=O)Cc3ccccc3)CC1)O[C@H]2CN [Example 142, (1R,3S)-1-Aminomethyl-6-methyl-3-(1-phenylmethanesulfonyl-piperidin-4-yl)-isochroman-5-ol hydrochloride] | 18 nM | 1.9 nM | ≥ 100000 nM |  | 
COc1ccc(S(=O)(=O)N2CCC([C@@H]3Cc4c(ccc(C)c4O)[C@H](CN)O3)CC2)cc1OC [Example 144, (1R,3S)-1-Aminomethyl-3-[1-(3,4-dimethoxy-benzenesulfonyl)-piperidin-4-yl]-6-methyl-isochroman-5-ol hydrochloride] | 91 nM | 3.6 nM | 602 nM |  | 
Cc1ccc2c(c1O)C[C@@H](C1CCN(S(=O)(=O)c3ccc(C(C)(C)C)cc3)CC1)O[C@H]2CN [Example 146, (1R,3S)-1-Aminomethyl-3-[1-(4-tert-butyl-benzenesulfonyl)-piperidin-4-yl]-6-methyl-isochroman-5-ol hydrochloride] | 89 nM | 79 nM | 531 nM |  | 
Cc1ccc2c(c1O)C[C@@H](C1CCN(S(=O)(=O)c3ccc4ccccc4c3)CC1)O[C@H]2CN [Example 147, (1R 3S)-1-Aminomethyl-6-methyl-3-[1-(naphthalene-2-sulfonyl)-piperidin-4-yl]-isochroman-5-ol hydrochloride] | 108 nM | 394 nM | 623 nM |  | 
Cc1ccc2c(c1O)C[C@@H](C1CCN(S(=O)(=O)c3cc(Cl)ccc3Cl)CC1)O[C@H]2CN [Example 151, (1R,3S)-1-Aminomethyl-3-[1-(2,5-dichloro-benzenesulfonyl)-piperidin-4-yl]-6-methyl-isochroman-5-ol hydrochloride] | 82 nM | 58 nM | ≥ 100000 nM |  | 
Cc1ccc2c(c1O)C[C@@H](C1CCN(S(=O)(=O)CC(F)(F)F)CC1)O[C@H]2CN [Example 157, (1R,3S)-1-Aminomethyl-6-methyl-3-[1-(2,2,2-trifluoro-ethanesulfonyl)-piperidin-4-yl]-isochroman-5-ol hydrochloride] | 2.07 nM | 460 nM | 434 nM |  | 
